These results are taken from patent publication US11274106B2, “Topoisomerase inhibitors with antibacterial and anticancer activity” (THE BOARD OF TRUSTEES OF THE UNIVERSITY OF ILLINOIS, priority 2017, dated 2022).

SMILES strings stand for the structures. Values after ≈ are worked out from the molar mass of the structure shown. “Also recorded” adds a separate entry of the source.

Experiment [1] has as its target T1, Top1 (Homo sapiens, UniProt P11387).
T1 sequence (P11387 1-765): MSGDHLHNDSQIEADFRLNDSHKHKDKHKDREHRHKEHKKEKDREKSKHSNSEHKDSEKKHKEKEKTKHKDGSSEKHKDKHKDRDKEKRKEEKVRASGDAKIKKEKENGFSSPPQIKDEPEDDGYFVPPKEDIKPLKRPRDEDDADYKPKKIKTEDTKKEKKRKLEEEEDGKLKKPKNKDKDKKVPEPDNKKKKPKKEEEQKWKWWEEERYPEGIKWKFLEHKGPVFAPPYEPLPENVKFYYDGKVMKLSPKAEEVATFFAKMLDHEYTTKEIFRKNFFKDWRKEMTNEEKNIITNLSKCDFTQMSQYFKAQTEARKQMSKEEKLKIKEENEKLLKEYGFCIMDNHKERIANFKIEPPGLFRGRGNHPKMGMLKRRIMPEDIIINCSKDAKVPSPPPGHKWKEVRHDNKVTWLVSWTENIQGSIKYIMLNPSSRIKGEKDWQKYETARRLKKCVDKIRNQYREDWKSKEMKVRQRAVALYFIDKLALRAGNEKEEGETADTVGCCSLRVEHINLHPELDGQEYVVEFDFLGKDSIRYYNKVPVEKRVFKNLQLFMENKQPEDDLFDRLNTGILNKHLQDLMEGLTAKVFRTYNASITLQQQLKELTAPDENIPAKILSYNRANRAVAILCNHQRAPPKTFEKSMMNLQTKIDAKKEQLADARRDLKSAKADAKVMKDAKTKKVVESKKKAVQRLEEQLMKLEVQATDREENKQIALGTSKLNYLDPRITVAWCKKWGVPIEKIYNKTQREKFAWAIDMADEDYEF
Kind of experiment: Top1 degradation by Western blot, MDA-MB-231. In kind it is cell-based. On the set-up: dose or concentration left out as unconfirmed. As to conditions: 4, and 6 hours, then 30-minute drug-free media. On the procedure: FIG. 4. Level of Top1-degradation predicts cell line sensitivity. (a) Cells treated with 25 μM of compound for indicated times followed by a 30 minute incubation with drug-free media. Cells were lysed with RIPA and Top1 levels assessed by Western Blot. (b) Degradation of Top1 results in a right-ward shift in the dose-response curve. Effect is most pronounced in Top1-poisons (Ph-6DNM-NH3, CPT) than Top1 catalytic inhibitor (6DNM-Pyr). Cell death measured by SRB assay after 72 hour of compound exposure (n≥3 biological replicates, error bars show SEM).
This difference in mechanism of action between Ph-6DNM-NH3 and 6DNM-Pyr may provide an explanation of the differences in cell line sensitivities between the different DNM derivatives. […] This downregulation serves as a resistance mechanism and the level of Top1 degradation is correlated with reduced sensitivity to CPT. To determine if a similar mechanism is responsible for the reduced sensitivity to Ph-6DNM-NH3 and its derivatives in certain cell lines, the effects of Ph-6DNM-NH3 and 6DNM-Pyr were compared to that of CPT in […] and BT-474, two cancer cell lines known to be deficient and proficient in Top1 degradation, respectively. Cells were treated with 50 μM Ph-6DNM-NH3, 6DNM-Pyr, or CPT for 2, 4, and 6 hours. Following a 30-minute incubation with drug-free media to allow for the reversal of any Top1cc formed, cells were lysed and Top1 concentrations assessed by Western blot (FIG. 4a).

The next experiment deals with HOS. The experiment in a line: Antiproliferative SRB assay, HOS. It is filed as cell-based. As to conditions: Homo sapiens, 72 h, Osteosarcoma, mean ± SEM. From the text:
(§1) Topoisomerase inhibitors such as DOX are used as single agent and in combination therapy to treat a wide-range of cancer types.
In general terms: Sulforhodamine B stains cellular protein and so reports cell mass.

A further experiment deals with E. coli. The experiment in a line: Antibacterial MIC, microbroth dilution, E. coli. It is filed as cell-based. The method, then: To investigate this possibility, the antibacterial effects of the DNM derivatives was assessed against strains of E. coli, S. aureus, and MRSA using the microbroth dilution method (Table 2).
For orientation: Broth dilution looks for growth in wells or tubes with falling amounts of substance.

The subject of another experiment is panel of cancer cells. The experiment in a line: Average over panel of 10 cancer cell lines. It is filed as cell-based. As to conditions: 72 hour, read-out: Average (mean) IC50 over the cell line panel.
Text: as §1

A further experiment relates to BT-474. The experiment in a line: Antiproliferative SRB assay, BT-474. The conditions noted are these: for IC50: Homo sapiens, BT-474, 72 h, Breast cancer, mean ± SEM. In kind it is cell-based.
Text: as §1

Another experiment addresses Top2α (Homo sapiens, UniProt P11388). The experiment in a line: Top2α kDNA decatenation assay. It is filed as biochemical. As to conditions: gel electrophoresis, FIG. 3a. From the text: (§2) FIG. 3. DNM derivatives are dual Top1/Top2 inhibitors with different modes of inhibition. (a) Inhibition of decatenating ability of Top2α with increasing concentrations of ETP, 6DNM-NH3, 6DNM-Pyr, and Ph-6DNM-NH3. K, kinetoplast DNA; OC, open circular; R, relaxed. (b) Inhibition of relaxing ability of Top1 with increasing concentrations of CPT, 6DNM-NH3, 6DNM-Pyr, and Ph-6DNM-NH3. R, relaxed; S, supercoiled. (c) Detection of Top2a-DNA using the ICE Assay. Genomic DNA ([…]) of H460 cells treated with drugs (50 μM, 30 min) was applied to nitrocellulose membrane and immunoblotted for Top2a. (d) Detection of Top1-DNA adducts using ICE Assay. Same procedure as (c) using 1 μg of DNA. (e) Inhibition of ETP-induced poisoning of Top2a. H460 cells treated with indicated concentrations of inhibitor for 30 min prior to treatment with ETP (50 μM). Detection of Top2α as in (c).
FIG. 9. Mechanism of action studies: Topoisomerases form transient covalent complexes with DNA to modify DNA topology. Ph6DNM-NH3 and 6DNM-NH3 inhibit bacterial DNA gyrase and human topoisomerase II in vitro.
The ability of Ph-6DNM-NH3, 6DNM-NH3, and 6DNM-Pyr to inhibit Top2α was assessed using a decatenation assay. In this assay, Top2α is incubated with kinetoplast DNA (kDNA), a large network of catenated minicircles and maxicircles of DNA. As Top2α decatenates the kDNA, it releases supercoiled and relaxed DNA minicircles that are easily separated from the kDNA by gel electrophoresis.

The test system of a further experiment is Jurkat. Kind of experiment: Cell viability Alamar Blue assay, Jurkat. It is filed as cell-based. The conditions noted are these: Homo sapiens, 72 h, Leukemia, mean ± SEM.
Text: as §1
(The colour change of resazurin is a common sign of viable cells or microbes.)

The next experiment relates to ES-2. The experiment in a line: Antiproliferative SRB assay, ES-2. In kind it is cell-based. The conditions noted are these: Homo sapiens, ES-2, 72 h, Cervical cancer (footnote f), mean ± SEM.
Text: as §1

For experiment [2], the target named is T1, Top1. Kind of experiment: Top1 DNA relaxation assay (pBR322). In kind it is biochemical. The conditions noted are these: for Inhibition of Top1 relaxation: supercoiled pBR322, FIG. 3b.
Text: as §2
To further investigate any mechanistic differences between these structurally related DNM analogues they were also evaluated against the other clinically-targeted mammalian topoisomerase, Top1, using a DNA relaxation assay in which purified Top1 relaxes supercoiled pBR322 and the two forms are separated by agarose gel electrophoresis.

Top2α, sequence (P11388 whole entry): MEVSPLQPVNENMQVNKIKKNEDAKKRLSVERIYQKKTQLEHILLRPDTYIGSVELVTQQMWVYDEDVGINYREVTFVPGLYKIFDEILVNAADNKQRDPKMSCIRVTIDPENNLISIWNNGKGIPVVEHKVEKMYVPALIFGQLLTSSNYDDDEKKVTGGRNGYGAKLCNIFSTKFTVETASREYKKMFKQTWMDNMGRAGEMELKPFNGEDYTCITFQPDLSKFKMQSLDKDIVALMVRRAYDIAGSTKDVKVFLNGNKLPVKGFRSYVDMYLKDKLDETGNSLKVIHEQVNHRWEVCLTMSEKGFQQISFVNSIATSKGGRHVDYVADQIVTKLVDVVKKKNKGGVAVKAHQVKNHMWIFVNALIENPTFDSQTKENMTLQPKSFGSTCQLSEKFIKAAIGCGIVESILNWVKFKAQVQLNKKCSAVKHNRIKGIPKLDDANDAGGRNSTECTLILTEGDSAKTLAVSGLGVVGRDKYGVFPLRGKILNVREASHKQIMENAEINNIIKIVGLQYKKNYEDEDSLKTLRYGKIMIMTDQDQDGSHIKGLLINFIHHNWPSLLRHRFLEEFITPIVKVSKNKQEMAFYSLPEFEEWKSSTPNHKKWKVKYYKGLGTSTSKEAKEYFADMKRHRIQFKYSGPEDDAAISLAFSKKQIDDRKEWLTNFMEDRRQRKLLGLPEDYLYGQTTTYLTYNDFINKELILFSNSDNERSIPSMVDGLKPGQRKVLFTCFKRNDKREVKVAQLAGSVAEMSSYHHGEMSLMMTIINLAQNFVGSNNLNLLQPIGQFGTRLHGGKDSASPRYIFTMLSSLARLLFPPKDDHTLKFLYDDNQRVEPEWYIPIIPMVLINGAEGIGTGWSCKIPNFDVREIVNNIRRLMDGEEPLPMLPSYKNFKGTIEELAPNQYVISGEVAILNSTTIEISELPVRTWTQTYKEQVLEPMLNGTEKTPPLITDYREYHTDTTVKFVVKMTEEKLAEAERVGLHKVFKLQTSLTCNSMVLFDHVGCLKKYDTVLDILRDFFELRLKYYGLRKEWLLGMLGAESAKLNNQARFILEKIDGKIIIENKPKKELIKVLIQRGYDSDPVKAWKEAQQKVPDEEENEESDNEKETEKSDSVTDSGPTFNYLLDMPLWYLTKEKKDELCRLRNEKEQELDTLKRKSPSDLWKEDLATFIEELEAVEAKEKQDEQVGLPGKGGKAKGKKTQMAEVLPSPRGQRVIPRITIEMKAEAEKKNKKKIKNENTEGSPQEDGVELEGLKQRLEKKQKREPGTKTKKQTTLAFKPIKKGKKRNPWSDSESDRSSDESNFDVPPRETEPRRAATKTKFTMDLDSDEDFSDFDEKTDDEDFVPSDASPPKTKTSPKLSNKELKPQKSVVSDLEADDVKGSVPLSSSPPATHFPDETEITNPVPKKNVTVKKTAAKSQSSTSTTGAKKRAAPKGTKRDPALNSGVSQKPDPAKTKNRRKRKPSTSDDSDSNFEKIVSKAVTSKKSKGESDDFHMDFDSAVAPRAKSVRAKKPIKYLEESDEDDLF

Regarding `Cc1cc(=O)n(C)c2c3c4c(cc12)c(C)cc(=O)n4C(CN1CCCC1)CO3` (centres unmarked) [Compound 20], the “Top1 levels by Western blot in MDA-MB-231” value on Top1 [1] was “minimal differences in Top1 relative to untreated cells”. Besides, the IC50 in the experiment with HOS was determined as 0.016 ± 0.002 µM; with panel of cancer cells, 0.025 µM; with BT-474, 0.091 ± 0.004 µM; with Jurkat, 0.02 ± 0.006 µM; in the experiment on ES-2, 0.017 ± 0.004 µM. The same compound registered an MIC in the experiment with E. coli (Escherichia coli) of 1 µg/mL (≈ 2.64 µM). Besides, on Top2α (listed as 6DNM-Pyr), the “Inhibition of decatenating function of Top2α” value is “inhibit the decatenating function of Top2α in a dose-dependent manner; also recorded: inhibiting Top2α function at lower concentrations than 6DNM-NH3”. Besides, the “Inhibition of Top1 relaxation” value at Top1 [2] is on record as “inhibit relaxation at submicromolar concentrations”.

Regarding `Cc1cc(=O)n2c3c(c4c(cc13)c1ccccc1c(=O)n4C)OCC2CN` (centres unmarked) [Compound 15], the “Top1 levels by Western blot in MDA-MB-231” value at Top1 [1] is listed as “minimal differences in Top1 relative to untreated cells”. In addition, the IC50 in the experiment on HOS turned out to be 0.017 ± 0.001 µM; in the experiment on panel of cancer cells it was 0.164 µM; in the experiment on BT-474, 0.69 ± 0.05 µM; in the experiment on Jurkat, 0.29 ± 0.03 µM; in the experiment with ES-2, 0.028 ± 0.006 µM. Further, the “E. coli MIC” value in the experiment on E. coli worked out at 0.25 µg/mL. Further, the “Effectiveness in BT-474 after Top1 degradation” value in the experiment with BT-474 (FIG. 4b, 72 hour) is on record as “similarly reduced, however to a lesser extent”. For the same compound, the “Inhibition of decatenating function of Top2α” value on Top2α (listed as Ph-6DNM-NH3) is listed as “inhibit the decatenating function of Top2α in a dose-dependent manner; also recorded: the least active derivative in this in vitro assay”. Further, the “Fold less potent Top1 inhibitor than 6DNM-Pyr” value on Top1 [2] (DNA relaxation assay) is given as “more than 20 fold”. The “Inhibition of Top1 relaxation” value at Top1 [2] is “approximately equipotent to the known Top1 inhibitor camptothecin”.

By IC50 is commonly meant the point on the concentration scale where inhibition reaches its midpoint. Usually MIC stands for the lowest concentration that inhibits growth of the organism.
